Source: US12543738B2 (Bayer Aktiengesellschaft, priority 2020, dated 2026)

What was measured:
[1] = Measurement of LogP values by HPLC on reversed phase columns (EEC directive 79/831 Annex V.A8); type: physicochemical; settings: method [a]: LC-UV, acidic range, 0.1% formic acid in water and acetonitrile; compounds of formula (I-1), Table 1
Experimental: Calibration was done with straight-chain alkan2-ones (with 3 to 16 carbon atoms) with known LogP values (measurement of LogP values using retention times with linear interpolation between successive alkanones). Lambda-max-values were determined using UV-spectra from 200 nm to 400 nm and the peak values of the chromatographic signals

Botrytis cinerea = experiment: In vivo preventive test on Botrytis cinerea (grey mould); settings: 500 ppm of active ingredient, preventive spray on gherkin or cabbage, evaluated 4 to 5 days after inoculation, read-out: efficacy
Experimental: (§1) The active ingredients were made soluble and homogenized in a mixture of Dimethyl sulfoxide/Acetone//Tween® 80 and then diluted in water to the desired concentration. The young plants of gherkin or cabbage were treated by spraying the active ingredient prepared as described above. Control plants were treated only with an aqueous solution of Acetone/Dimethyl sulfoxide/Tween® 80. After 24 hours, the plants were contaminated by spraying the leaves with an aqueous suspension of Botrytis cinerea spores.

Pyrenophora teres = experiment: In vivo preventive test on Pyrenophora teres (net blotch on barley); settings: 240 h, 500 ppm of active ingredient, preventive spray on barley, evaluated 10 days after inoculation, read-out: efficacy
Experimental: as §1, with “barley” for “gherkin or cabbage”, “Pyrenophora teres” for “Botrytis cinerea”

Sphaerotheca fuliginea = experiment: In vivo preventive test on Sphaerotheca fuliginea (powdery mildew on cucurbits); settings: Podosphaera fuliginea, 192 h; 500 ppm of active ingredient; preventive spray on gherkin; evaluated 8 days after inoculation; read-out: efficacy
Experimental: as §1, with “gherkin” for “gherkin or cabbage”, “Sphaerotheca fuliginea” for “Botrytis cinerea”

[2] = test system: Colletotrichum lindemuthianum; experiment: In vivo preventive test on Colletotrichum lindemuthianum (leaf spot on bean); settings: 168 h, 500 ppm of active ingredient, preventive spray on bean, evaluated 7 days after inoculation, read-out: efficacy
Experimental: as §1, with “bean” for “gherkin or cabbage”, “Colletotrichum lindemuthianum” for “Botrytis cinerea”

Alternaria alternata = Alternaria alternata in vitro cell test; type: cell-based; settings: 120 h, 20 ppm of active ingredient, liquid culture, 5 days incubation, read-out: efficacy (inhibition of fungal growth)
Experimental: (§2) • Solvent: DMSO • Culture medium: 14.6 g anhydrous D-glucose (VWR), 7.1 g Mycological Peptone (Oxoid), 1.4 g granulated Yeast Extract (Merck), QSP 1 liter • Inoculum: spores suspension Fungicides were solubilized in DMSO and the solution used to prepare the required range of concentrations. […] A spore suspension of A. alternata was prepared and diluted to the desired spore density. Fungicides were evaluated for their ability to inhibit spore germination and mycelium growth in liquid culture assay. The compounds were added in the desired concentration to the culture medium with spores. After 5 days incubation, fungi-toxicity of compounds was determined by spectrometric measurement of mycelium growth. Inhibition of fungal growth was determined by comparing the absorbance values in wells containing the fungicides with the absorbance in control wells without fungicides.

Fusarium culmorum = Fusarium culmorum in vitro cell test; type: cell-based; settings: 96 h, 20 ppm of active ingredient, liquid culture, 4 days incubation, read-out: efficacy (inhibition of fungal growth)
Experimental: • Solvent: DMSO • Culture medium: 14.6 g anhydrous D-glucose (VWR), 7.1 g Mycological Peptone (Oxoid), 1.4 g granulated Yeast Extract (Merck), QSP 1 liter • Inoculum: spore suspension • Fungicides were solubilized in DMSO and the solution used to prepare the required range of concentrations. The final concentration of DMSO used in the assay was ≤1%.
A spore suspension of F. culmorum was prepared and diluted to the desired spore density.
Fungicides were evaluated for their ability to inhibit spore germination and mycelium growth in liquid culture assay. The compounds were added in the desired concentration to the culture medium with spores. After 4 days incubation, fungi-toxicity of compounds was determined by spectrometric measurement of mycelium growth. Inhibition of fungal growth was determined by comparing the absorbance values in wells containing the fungicides with the absorbance in control wells without fungicides.

Pyricularia Oryzae = experiment: microbe, parasite or virus in culture; type: cell-based; settings: 120 h, read-out: efficacy (inhibition of fungal growth)
[3] = test system: Colletotrichum lindemuthianum; experiment: Colletotrichum lindemuthianum in vitro cell test; type: cell-based; settings: 144 h, 20 ppm of active ingredient, liquid culture, 6 days incubation, read-out: efficacy (inhibition of fungal growth)
Experimental: as §2, with “of C. lindemuthianum” for “of A. alternata”, “inhibit spores” for “inhibit spore”, “After 6” for “After 5”

Septoria tritici = Septoria tritici in vitro cell test; type: cell-based; settings: Zymoseptoria tritici, 168 h; 20 ppm of active ingredient; liquid culture, 7 days incubation; read-out: efficacy (inhibition of fungal growth)
Experimental: • Solvent: DMSO • Culture medium: 1 g KH2PO4 (VWR), 1 g K2HPO4 (VWR), 0.5 g Urea (VWR), 3 g KNO3 (Prolabo), 10 g saccharose (VWR), 0.5 g MgSO4, 7H2O (Sigma), 0.07 g CaCl2, 2H2O (Prolabo), 0.2 mg MnSO4, H2O (Sigma), 0.6 mg CuSO4, 5H2O (Sigma), 7.9 mg ZnSO4, 7H2O (Sigma), 0.1 mg H3BO3 (Merck), 0.14 mg NaMoO4, 2H2O (Sigma), 2 mg thiamine (Sigma), 0.1 mg biotine (VWR), 4 mg FeSO4, 7H2O (Sigma), QSP 1 liter • Inoculum: spore suspension Fungicides were solubilized in DMSO and the solution used to prepare the required range of concentrations. […] A spore suspension of S. tritici was prepared and diluted to the desired spore density. Fungicides were evaluated for their ability to inhibit spore germination and mycelium growth in liquid culture assay. The compounds were added in the desired concentration to the culture medium with spores. […] Inhibition of fungal growth was determined by comparing the absorbance values in wells containing the fungicides with the absorbance in control wells without fungicides.

Alternaria brassicae = experiment: In vivo preventive test on Alternaria brassicae (leaf spot on radish or cabbage); settings: 144 h, 500 ppm of active ingredient, preventive spray on radish or cabbage, evaluated 6 days after inoculation, read-out: efficacy
Experimental: as §1, with “radish” for “gherkin”, “Alternaria brassicae” for “Botrytis cinerea”

Cc1cccc(Oc2nnc(Cl)cc2C2=NOCC(Cc3ccc(Cl)cc3Cl)N2)c1F (racemic) [Compound I-005, (5RS)-3-[6-chloro-3-(2-fluoro-3-methylphenoxy)pyridazin-4-yl]-5-(2,4-dichlorobenzyl)-5,6-dihydro-4H-1,2,4-oxadiazine]
4.47: chromatographic logP [1]
90 to 100%: pest or weed control at 500 ppm (Botrytis cinerea) | pest or weed control at 500 ppm (Pyrenophora teres) | pest or weed control at 500 ppm (Sphaerotheca fuliginea) | pest or weed control at 500 ppm [2] | inhibition at 20 ppm (Alternaria alternata) | inhibition at 20 ppm (Fusarium culmorum) | inhibition at 20 ppm (Pyricularia Oryzae) | inhibition at 20 ppm [3] | inhibition at 20 ppm (Septoria tritici) | pest or weed control at 500 ppm (Alternaria brassicae)

Cc1ccc(C)c(CC2CON=C(c3cc(C)nnc3Oc3cccc(Cl)c3)N2)c1 (racemic) [Compound I-011, (5RS)-3-[3-(3-chlorophenoxy)-6-methylpyridazin-4-yl]-5-(2,5-dimethylbenzyl)-5,6-dihydro-4H-1,2,4-oxadiazine]
90 to 100%: pest or weed control at 500 ppm (Botrytis cinerea) | pest or weed control at 500 ppm (Pyrenophora teres) | pest or weed control at 500 ppm (Sphaerotheca fuliginea) | pest or weed control at 500 ppm [2] | inhibition at 20 ppm (Alternaria alternata) | inhibition at 20 ppm (Pyricularia Oryzae) | inhibition at 20 ppm [3] | inhibition at 20 ppm (Septoria tritici) | pest or weed control at 500 ppm (Alternaria brassicae)
3.7: chromatographic logP [1]
70 to 79%: inhibition at 20 ppm (Fusarium culmorum)

Cc1ccc(CC2CON=C(c3cc(C)nnc3Oc3cccc(Cl)c3)N2)c(C)c1 (racemic) [Compound I-002, (5RS)-3-[3-(3-chlorophenoxy)-6-methylpyridazin-4-yl]-5-(2,4-dimethylbenzyl)-5,6-dihydro-4H-1,2,4-oxadiazine]
90 to 100%: pest or weed control at 500 ppm (Botrytis cinerea) | pest or weed control at 500 ppm (Pyrenophora teres) | pest or weed control at 500 ppm (Sphaerotheca fuliginea) | pest or weed control at 500 ppm [2] | inhibition at 20 ppm (Alternaria alternata) | inhibition at 20 ppm (Fusarium culmorum) | inhibition at 20 ppm (Pyricularia Oryzae) | inhibition at 20 ppm [3] | inhibition at 20 ppm (Septoria tritici) | pest or weed control at 500 ppm (Alternaria brassicae)
3.77: chromatographic logP [1]

Cc1ccc(CC2CON=C(c3cc(C)nnc3Oc3cccc(Cl)c3)N2)c(Br)c1 (racemic) [Compound I-001, (5RS)-5-(2-bromo-4-methylbenzyl)-3-[3-(3-chlorophenoxy)-6-methylpyridazin-4-yl]-5,6-dihydro-4H-1,2,4-oxadiazine]
90 to 100%: pest or weed control at 500 ppm (Botrytis cinerea) | pest or weed control at 500 ppm (Pyrenophora teres) | pest or weed control at 500 ppm (Sphaerotheca fuliginea) | pest or weed control at 500 ppm [2] | inhibition at 20 ppm (Alternaria alternata) | inhibition at 20 ppm (Fusarium culmorum) | inhibition at 20 ppm (Pyricularia Oryzae) | inhibition at 20 ppm [3] | inhibition at 20 ppm (Septoria tritici) | pest or weed control at 500 ppm (Alternaria brassicae)
3.94: chromatographic logP [1]

C[C@@H](F)c1cc(C2=NOC[C@@H](Cc3ccc(Cl)cc3Cl)N2)c(Oc2cccc(C3CC3)c2F)nn1 (racemic) [Compound I-018, (5RS)-3-{3-(3-cyclopropyl-2-fluorophenoxy)-6-[(1RS)-1-fluoroethyl]pyridazin-4-yl}-5-(2,4-dichlorobenzyl)-5,6-dihydro-4H-1,2,4-oxadiazine]
90 to 100%: pest or weed control at 500 ppm (Botrytis cinerea) | pest or weed control at 500 ppm (Pyrenophora teres) | pest or weed control at 500 ppm (Sphaerotheca fuliginea) | pest or weed control at 500 ppm [2] | inhibition at 20 ppm (Alternaria alternata) | inhibition at 20 ppm (Fusarium culmorum) | inhibition at 20 ppm (Pyricularia Oryzae) | inhibition at 20 ppm [3] | inhibition at 20 ppm (Septoria tritici) | pest or weed control at 500 ppm (Alternaria brassicae)
4.74: chromatographic logP [1]

Cc1ccc(C)c(CC2CON=C(c3cc(C)nnc3Oc3cccc(Cl)c3F)N2)c1 (racemic) [Compound I-012, (5RS)-3-[3-(3-chloro-2-fluorophenoxy)-6-methylpyridazin-4-yl]-5-(2,5-dimethylbenzyl)-5,6-dihydro-4H-1,2,4-oxadiazine]
3.8: chromatographic logP [1]
90 to 100%: pest or weed control at 500 ppm (Botrytis cinerea) | pest or weed control at 500 ppm (Pyrenophora teres) | pest or weed control at 500 ppm (Sphaerotheca fuliginea) | pest or weed control at 500 ppm [2] | inhibition at 20 ppm (Alternaria alternata) | inhibition at 20 ppm (Fusarium culmorum) | inhibition at 20 ppm (Pyricularia Oryzae) | inhibition at 20 ppm [3] | inhibition at 20 ppm (Septoria tritici) | pest or weed control at 500 ppm (Alternaria brassicae)

O=CN1C(c2cc(Cl)nnc2Oc2cccc(C3CC3)c2F)=NOCC1Cc1ccc(Cl)cc1Cl (racemic) [Compound I-025, (5RS)-3-[6-chloro-3-(3-cyclopropyl-2-fluorophenoxy)pyridazin-4-yl]-5-(2,4-dichlorobenzyl)-5,6-dihydro-4H-1,2,4-oxadiazine-4-carbaldehyde]
4.93: chromatographic logP [1]
90 to 100%: pest or weed control at 500 ppm (Botrytis cinerea) | pest or weed control at 500 ppm (Pyrenophora teres) | pest or weed control at 500 ppm (Sphaerotheca fuliginea) | pest or weed control at 500 ppm [2] | inhibition at 20 ppm (Alternaria alternata) | inhibition at 20 ppm (Fusarium culmorum) | inhibition at 20 ppm (Pyricularia Oryzae) | inhibition at 20 ppm [3] | inhibition at 20 ppm (Septoria tritici) | pest or weed control at 500 ppm (Alternaria brassicae)
